In patent US11034724B2, “Crystalline salt forms of Boc-D-Arg-DMT-Lys-(Boc)-Phe-NH2” (Stealth BioTherapeutics Corp., priority 2017, dated 2021):
Converted amounts (≈) assume the structure as drawn. Like-named read-outs stand apart in the source and are kept apart here. Non-standard residues stand in square brackets, D forms with d. Residues, ends and D or L forms follow the SMILES beside them. *: point of attachment. Dmt = Cc1cc(O)cc(C)c1C[C@H](N)C(=O)O; Boc = CC(C)(C)OC(=O)*

Columns and labels:
Format in all cases: physicochemical
[1] = Gravimetric vapour sorption (GVS), hygroscopicity
Experimental: Gravimetric Vapour Sorption (GVS)
Approximately 15 mg of sample was placed into a mesh vapour sorption balance pan and loaded into an IGASorp Moisture Sorption Analyser balance by Hiden Analytical. The sample was subjected to a ramping profile from 40-90% relative humidity (RH) at 10% increments, maintaining the sample at each step until a stable weight had been achieved (98% step completion). After completion of the sorption cycle, the sample was dried using the same procedure to 0% RH, then subjected to a second ramping profile from 0-90% relative humidity. After completion of the second sorption cycle, the sample was dried using the same procedure to 0% RH, and finally taken back to the starting point of 40% RH. The weight change during the sorption/desorption cycles were plotted, allowing for the hygroscopic nature of the sample to be determined.

[2] = Approximate solubility assessment (solvent addition technique)
Experimental: Approximate Solubility Assessment of Boc-D-Arg-DMT-Lys(Boc)-Phe-NH2
The solubility screen was carried out as follows: • Approximately 20 mg of Boc-D-Arg-DMT-Lys(Boc)-Phe-NH2 was weighed out into each vial. • Each solvent/solvent mixture was added to the appropriate vial in 5 volume aliquots (100 μL). • In between additions, the sample was stirred at 50° C.
The solubility assessment was estimated by a solvent addition technique, heating at 50° C. between aliquots (see Table 9).

[3] = as above; conditions: dichloromethane, 35° C. for dichloromethane, read-out: Approximate Solubility (50° C.)

## Cc1cc(O)cc(C)c1C[C@H](NC(=O)[C@@H](CCCNC(=N)N)NC(=O)OC(C)(C)C)C(=O)N[C@@H](CCCCNC(=O)OC(C)(C)C)C(=O)N[C@@H](Cc1ccccc1)C(N)=O [Boc-D-Arg-DMT-Lys(Boc)-Phe-NH2] (Boc-[dR][Dmt]K(Boc)F-NH2)
[1]; between 40-90% RH, received, predominantly amorphous material
  Mass increase by GVS: ca. 10%
[1]; crystallized material compared with the amorphous input
  Hygroscopicity after crystallization: did not show an improvement in terms of hygroscopicity
[1]; received, predominantly amorphous material
  Hygroscopicity by GVS analysis: highly hygroscopic
[2]; 2-butanol, solvent 2-Butanol, 50° C., read-out: Approximate Solubility (50° C.)
  solubility: 17 mg/mL (≈ 20.2 mM)
[2]; 2-propanol, solvent 2-Propanol, 50° C., read-out: Approximate Solubility (50° C.)
  solubility: 14 mg/mL (≈ 16.7 mM)
[2]; 2-propanol:water (50:50% v/v), solvent 2-propanol:water (50:50% v/v), 50° C., read-out: Approximate Solubility (50° C.)
  solubility: ~100 mg/mL (≈ 119 mM)
[2]; DMSO:acetone (50:50% v/v), solvent DMSO:acetone (50:50% v/v), 50° C., read-out: Approximate Solubility (50° C.)
  solubility: ≥ 200 mg/mL
[2]; DMSO:water (50:50% v/v), solvent DMSO:water (50:50% v/v), 50° C., read-out: Approximate Solubility (50° C.)
  solubility: 24 mg/mL (≈ 28.6 mM)
[2]; acetone, solvent Acetone, 50° C., read-out: Approximate Solubility (50° C.)
  solubility: < 10 mg/mL
[2]; acetone:water (50:50% v/v), solvent Acetone:water (50:50% v/v), 50° C., read-out: Approximate Solubility (50° C.)
  solubility: 58 mg/mL (≈ 69 mM)
[2]; acetonitrile, solvent Acetonitrile, 50° C., read-out: Approximate Solubility (50° C.)
  solubility: < 10 mg/mL
[2]; acetonitrile:water (50:50% v/v), solvent Acetonitrile:water (50:50% v/v), 50° C., read-out: Approximate Solubility (50° C.)
  solubility: ≥ 200 mg/mL
[2]; all other solvent systems: acetone, dichloromethane, 2-butanol, 2-propanol, methyl ethyl ketone, toluene, THF, ethyl acetate, acetonitrile, read-out: Poor solubility
  solubility: ≤ 17 mg/mL
[2]; ethanol, solvent Ethanol, 50° C., read-out: Approximate Solubility (50° C.)
  solubility: ~140 mg/mL (≈ 167 mM)
[2]; ethanol:water (50:50% v/v), solvent Ethanol:water (50:50% v/v), 50° C., read-out: Approximate Solubility (50° C.)
  solubility: ~100 mg/mL (≈ 119 mM)
[2]; ethyl acetate, solvent Ethyl acetate, 50° C., read-out: Approximate Solubility (50° C.)
  solubility: < 10 mg/mL
[2]; in acetone:water (50:50 v/v), methanol:water (50:50 v/v) and DMSO:water (50:50 v/v), 50° C.
  solubility: 58 to 24 mg/mL
[2]; methanol, solvent Methanol, 50° C., read-out: Approximate Solubility (50° C.)
  solubility: ≥ 200 mg/mL
[2]; methanol:water (50:50% v/v), solvent Methanol:water (50:50% v/v), 50° C., read-out: Approximate Solubility (50° C.)
  solubility: 45 mg/mL (≈ 53.6 mM)
[2]; methyl ethyl ketone, solvent Methyl ethyl ketone, 50° C., read-out: Approximate Solubility (50° C.)
  solubility: < 10 mg/mL
[2]; tetrahydrofuran, solvent Tetrahydrofuran, 50° C., read-out: Approximate Solubility (50° C.)
  solubility: < 10 mg/mL
[2]; toluene, solvent Toluene, 50° C., read-out: Approximate Solubility (50° C.)
  solubility: < 10 mg/mL
[2]; trifluoroethanol, solvent Trifluoroethanol, 50° C., read-out: Approximate Solubility (50° C.)
  solubility: ≥ 200 mg/mL
[3]
  solubility: < 10000 µg/mL
